Measurements from ChEMBL document CHEMBL3885881, “DrugMatrix”.

Species: Rattus norvegicus
Assay: DrugMatrix - Regimen: Daily Repeat
Assay type: toxicity, organism-based, Sprague-Dawley
Parameters: regimen Daily Repeat, gender Male, age 6-8 weeks
Conditions: in vivo, po, route oral GAVAGE; for ABSOLUTE BASOPHIL / ABSOLUTE EOSINOPHIL / ABSOLUTE LYMPHOCYTE / ABSOLUTE MONOCYTE / ABSOLUTE SEGMENTED NEUTROPHIL / BASOPHIL / EOSINOPHIL / ERYTHROCYTE COUNT / HEMATOCRIT / HEMOGLOBIN / LEUKOCYTE COUNT / LYMPHOCYTE / MEAN CORPUSCULAR HEMOGLOBIN / MEAN CORPUSCULAR HEMOGLOBIN CONCENTRATION / MEAN CORPUSCULAR VOLUME / MONOCYTE / NEUTROPHIL / NUCLEATED RED BLOOD CELLS / PLATELET COUNT: tissue Blood; for ALANINE AMINOTRANSFERASE / ALBUMIN / ALKALINE PHOSPHATASE / ASPARTATE AMINOTRANSFERASE / BLOOD UREA NITROGEN / CARBON DIOXIDE / CHLORIDE / CHOLESTEROL / CREATINE PHOSPHOKINASE / CREATININE / GLUCOSE / LACTATE DEHYDROGENASE / LIPASE / PHOSPHORUS / POTASSIUM / SODIUM / TOTAL BILIRUBIN / TOTAL PROTEIN / URIC ACID: tissue Plasma
[1] = […], 72 h, dose 1.7 mg/Kg, dose level Low, time 3 day
[2] = […], 120 h, dose 1.7 mg/Kg, dose level Low, time 5 day
[3] = 0 mg/kg, 72 h, dose level Control, time 3 day, vehicle 100 % WATER
[4] = 0 mg/kg, 120 h, dose level Control, time 5 day, vehicle 100 % WATER

For C#C[C@]1(OC(C)=O)CC[C@H]2[C@@H]3CCC4=CC(=O)CC[C@@H]4[C@H]3CC[C@@]21C [NORETHINDRONE ACETATE], the “ABSOLUTE BASOPHIL” value [1] was 0 CELLS/uL, the “ABSOLUTE EOSINOPHIL” value [1] was 0 CELLS/uL and the “ABSOLUTE LYMPHOCYTE” value [1] was 14146.67 CELLS/uL. The “ABSOLUTE MONOCYTE” value [1] was 167 CELLS/uL, the “ABSOLUTE SEGMENTED NEUTROPHIL” value [1] was 1486.33 CELLS/uL and the BASOPHIL [1] was 0%. The EOSINOPHIL [1] was 0%, the “ERYTHROCYTE COUNT” value [1] was 5.62 x10E6/uL and the HEMATOCRIT [1] was 33.97%. For the same compound, the HEMOGLOBIN [1] was 13.3 G/DL, the “LEUKOCYTE COUNT” value [1] was 15.8 x10E3/uL and the LYMPHOCYTE [1] was 89.33%. The “MEAN CORPUSCULAR HEMOGLOBIN” value [1] was 23.7 pg, the “MEAN CORPUSCULAR HEMOGLOBIN CONCENTRATION” value [1] was 39.17 G/DL and the “MEAN CORPUSCULAR VOLUME” value [1] was 60.5 fL. For the same compound, the MONOCYTE [1] was 1%, the NEUTROPHIL [1] was 9.67% and the “NUCLEATED RED BLOOD CELLS” value [1] was 0 /100WBC. For the same compound, the “PLATELET COUNT” value [1] was 1255.67 x10E3/uL, the “ALANINE AMINOTRANSFERASE” value [1] was 61.67 u/L and the ALBUMIN [1] was 4.07 G/DL. The “ALKALINE PHOSPHATASE” value [1] was 473.33 u/L, the “ASPARTATE AMINOTRANSFERASE” value [1] was 85 u/L and the “BLOOD UREA NITROGEN” value [1] was 14.33 mg/dL. The “CARBON DIOXIDE” value [1] was 26.67 mmol/L, the CHLORIDE [1] was 99.67 MEQ/L and the CHOLESTEROL [1] was 62.33 mg/dL. The “CREATINE PHOSPHOKINASE” value [1] was 351 u/L, the CREATININE [1] was 0.17 mg/dL and the GLUCOSE [1] was 158.33 mg/dL. The “LACTATE DEHYDROGENASE” value [1] was 371.33 u/L, the LIPASE [1] was 10.33 u/L and the PHOSPHORUS [1] was 12.87 mg/dL. The POTASSIUM [1] was 6.54 MEQ/L, the SODIUM [1] was 143.43 MEQ/L and the “TOTAL BILIRUBIN” value [1] was 0.17 mg/dL. For the same compound, the “TOTAL PROTEIN” value [1] was 5.73 G/DL, the “URIC ACID” value [1] was 1.37 mg/dL and the “ABSOLUTE BASOPHIL” value [2] was 0 CELLS/uL. The “ABSOLUTE EOSINOPHIL” value [2] was 62 CELLS/uL, the “ABSOLUTE LYMPHOCYTE” value [2] was 13760.33 CELLS/uL and the “ABSOLUTE MONOCYTE” value [2] was 100.67 CELLS/uL. The “ABSOLUTE SEGMENTED NEUTROPHIL” value [2] was 1110.33 CELLS/uL, the BASOPHIL [2] was 0% and the EOSINOPHIL [2] was 0.33%. The “ERYTHROCYTE COUNT” value [2] was 5.76 x10E6/uL, the HEMATOCRIT [2] was 36.33% and the HEMOGLOBIN [2] was 14.4 G/DL. The “LEUKOCYTE COUNT” value [2] was 15.03 x10E3/uL, the LYMPHOCYTE [2] was 91.67% and the “MEAN CORPUSCULAR HEMOGLOBIN” value [2] was 25.07 pg. The “MEAN CORPUSCULAR HEMOGLOBIN CONCENTRATION” value [2] was 39.67 G/DL, the “MEAN CORPUSCULAR VOLUME” value [2] was 63.17 fL and the MONOCYTE [2] was 0.67%. For the same compound, the NEUTROPHIL [2] was 7.33%, the “NUCLEATED RED BLOOD CELLS” value [2] was 0 /100WBC and the “PLATELET COUNT” value [2] was 1087.33 x10E3/uL. The “ALANINE AMINOTRANSFERASE” value [2] was 65.33 u/L, the ALBUMIN [2] was 4.13 G/DL and the “ALKALINE PHOSPHATASE” value [2] was 463.33 u/L. The “ASPARTATE AMINOTRANSFERASE” value [2] was 99 u/L, the “BLOOD UREA NITROGEN” value [2] was 16 mg/dL and the “CARBON DIOXIDE” value [2] was 28.67 mmol/L. The CHLORIDE [2] was 98.67 MEQ/L, the CHOLESTEROL [2] was 59.33 mg/dL and the “CREATINE PHOSPHOKINASE” value [2] was 362.33 u/L. For the same compound, the CREATININE [2] was 0.2 mg/dL, the GLUCOSE [2] was 142 mg/dL and the “LACTATE DEHYDROGENASE” value [2] was 548.33 u/L. It also gave an LIPASE [2] of 10.33 u/L, a PHOSPHORUS [2] of 12.73 mg/dL and a POTASSIUM [2] of 6.67 MEQ/L. The SODIUM [2] was 145.33 MEQ/L, the “TOTAL BILIRUBIN” value [2] was 0.23 mg/dL and the “TOTAL PROTEIN” value [2] was 5.93 G/DL. For the same compound, the “URIC ACID” value [2] was 1.63 mg/dL.
C[N+](C)(C)CCO.[Cl-] [CHOLINE CHLORIDE] was tested, and the “ABSOLUTE BASOPHIL” value [3] was 0 CELLS/uL, the “ABSOLUTE EOSINOPHIL” value [3] was 0 CELLS/uL and the “ABSOLUTE LYMPHOCYTE” value [3] was 10386.33 CELLS/uL. For the same compound, the “ABSOLUTE MONOCYTE” value [3] was 88.5 CELLS/uL, the “ABSOLUTE SEGMENTED NEUTROPHIL” value [3] was 1008.5 CELLS/uL and the BASOPHIL [3] was 0%. For the same compound, the EOSINOPHIL [3] was 0%, the “ERYTHROCYTE COUNT” value [3] was 5.16 x10E6/uL and the HEMATOCRIT [3] was 32.43%. The HEMOGLOBIN [3] was 12.98 G/DL, the “LEUKOCYTE COUNT” value [3] was 11.48 x10E3/uL and the LYMPHOCYTE [3] was 92.33%. The “MEAN CORPUSCULAR HEMOGLOBIN” value [3] was 25.23 pg, the “MEAN CORPUSCULAR HEMOGLOBIN CONCENTRATION” value [3] was 40.08 G/DL and the “MEAN CORPUSCULAR VOLUME” value [3] was 62.95 fL. For the same compound, the MONOCYTE [3] was 0.67%, the NEUTROPHIL [3] was 7% and the “NUCLEATED RED BLOOD CELLS” value [3] was 0 /100WBC. For the same compound, the “PLATELET COUNT” value [3] was 1016.67 x10E3/uL, the “ALANINE AMINOTRANSFERASE” value [3] was 62.17 u/L and the ALBUMIN [3] was 3.95 G/DL. The “ALKALINE PHOSPHATASE” value [3] was 363.5 u/L, the “ASPARTATE AMINOTRANSFERASE” value [3] was 118 u/L and the “BLOOD UREA NITROGEN” value [3] was 14.5 mg/dL. The “CARBON DIOXIDE” value [3] was 22.83 mmol/L, the CHLORIDE [3] was 100.67 MEQ/L and the CHOLESTEROL [3] was 66 mg/dL. For the same compound, the “CREATINE PHOSPHOKINASE” value [3] was 1308.83 u/L, the CREATININE [3] was 0.22 mg/dL and the GLUCOSE [3] was 187.5 mg/dL. For the same compound, the “LACTATE DEHYDROGENASE” value [3] was 380.17 u/L, the LIPASE [3] was 16.17 u/L and the PHOSPHORUS [3] was 14.27 mg/dL. For the same compound, the POTASSIUM [3] was 6.8 MEQ/L, the SODIUM [3] was 142.53 MEQ/L and the “TOTAL BILIRUBIN” value [3] was 0.2 mg/dL. The “TOTAL PROTEIN” value [3] was 5.68 G/DL, the “URIC ACID” value [3] was 2.87 mg/dL and the “ABSOLUTE BASOPHIL” value [4] was 0 CELLS/uL. For the same compound, the “ABSOLUTE EOSINOPHIL” value [4] was 80 CELLS/uL, the “ABSOLUTE LYMPHOCYTE” value [4] was 13301.33 CELLS/uL and the “ABSOLUTE MONOCYTE” value [4] was 180.83 CELLS/uL. For the same compound, the “ABSOLUTE SEGMENTED NEUTROPHIL” value [4] was 1187.83 CELLS/uL, the BASOPHIL [4] was 0% and the EOSINOPHIL [4] was 0.5%. The “ERYTHROCYTE COUNT” value [4] was 5.54 x10E6/uL, the HEMATOCRIT [4] was 35.65% and the HEMOGLOBIN [4] was 14.22 G/DL. For the same compound, the “LEUKOCYTE COUNT” value [4] was 14.75 x10E3/uL, the LYMPHOCYTE [4] was 90.67% and the “MEAN CORPUSCULAR HEMOGLOBIN” value [4] was 25.65 pg. The “MEAN CORPUSCULAR HEMOGLOBIN CONCENTRATION” value [4] was 39.88 G/DL, the “MEAN CORPUSCULAR VOLUME” value [4] was 64.35 fL and the MONOCYTE [4] was 1%. For the same compound, the NEUTROPHIL [4] was 7.83%, the “NUCLEATED RED BLOOD CELLS” value [4] was 0.17 /100WBC and the “PLATELET COUNT” value [4] was 1285.33 x10E3/uL. The “ALANINE AMINOTRANSFERASE” value [4] was 51.67 u/L, the ALBUMIN [4] was 4.08 G/DL and the “ALKALINE PHOSPHATASE” value [4] was 391.5 u/L. The “ASPARTATE AMINOTRANSFERASE” value [4] was 99.5 u/L, the “BLOOD UREA NITROGEN” value [4] was 15.5 mg/dL and the “CARBON DIOXIDE” value [4] was 28.33 mmol/L. The CHLORIDE [4] was 101.83 MEQ/L, the CHOLESTEROL [4] was 67.83 mg/dL and the “CREATINE PHOSPHOKINASE” value [4] was 771.33 u/L. The CREATININE [4] was 0.23 mg/dL, the GLUCOSE [4] was 156.5 mg/dL and the “LACTATE DEHYDROGENASE” value [4] was 544.33 u/L. For the same compound, the LIPASE [4] was 10.17 u/L, the PHOSPHORUS [4] was 12.03 mg/dL and the POTASSIUM [4] was 6.81 MEQ/L. For the same compound, the SODIUM [4] was 144.13 MEQ/L, the “TOTAL BILIRUBIN” value [4] was 0.22 mg/dL and the “TOTAL PROTEIN” value [4] was 6 G/DL. The “URIC ACID” value [4] was 2.18 mg/dL.
